Results from US11325899B2, “Benzofurane and benzothiophene derivatives as PGE2 receptor modulators” (IDORSIA PHARMACEUTICALS LTD, priority 2017, dated 2022).

How the values were obtained:
Type in all cases: cell-based
PTGER2 (EP2) = target: T1, PTGER2 (EP2) (Homo sapiens, UniProt P43116); assay: hEP2 b-arrestin assay (PathHunter HEK 293 PTGER2 b-arrestin cells); details: antagonistic activity, beta-arrestin assay; read-out: hEP2 b-arr IC50
T1 construct: host or cells: HEK 293 (PathHunter PTGER2 b-arrestin cell line)
T1 sequence (P43116 whole entry): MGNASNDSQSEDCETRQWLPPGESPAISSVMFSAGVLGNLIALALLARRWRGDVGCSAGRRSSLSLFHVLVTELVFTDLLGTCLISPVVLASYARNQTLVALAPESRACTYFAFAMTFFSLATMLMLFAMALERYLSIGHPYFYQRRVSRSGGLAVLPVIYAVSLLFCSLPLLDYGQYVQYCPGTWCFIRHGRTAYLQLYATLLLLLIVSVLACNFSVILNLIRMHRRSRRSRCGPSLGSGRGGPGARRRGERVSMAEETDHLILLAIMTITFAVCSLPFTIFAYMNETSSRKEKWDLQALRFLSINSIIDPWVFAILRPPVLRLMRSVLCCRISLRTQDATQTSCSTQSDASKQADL
In short: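 PathHunter HEK293 cells with ProLink-tagged EP2 and EA-β-arrestin 2 preincubated 15 min at 37 °C with compound (10 μM-2 nM or 1 μM-0.2 nM), then stimulated 120 min with 5 μM PGE2 (EC80). β-gal complementation read by chemiluminescence; IC50 from duplicate dose-response versus DMSO.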

PTGER4 (EP4) = target: T2, PTGER4 (EP4) (Homo sapiens, UniProt P35408); assay: hEP4 b-arrestin assay (PathHunter HEK 293 PTGER4 b-arrestin cells); details: antagonistic activity, beta-arrestin assay; read-out: hEP4 b-arr IC50
T2 construct: host or cells: HEK 293 (PathHunter PTGER4 b-arrestin cell line)
T2 sequence (P35408 whole entry): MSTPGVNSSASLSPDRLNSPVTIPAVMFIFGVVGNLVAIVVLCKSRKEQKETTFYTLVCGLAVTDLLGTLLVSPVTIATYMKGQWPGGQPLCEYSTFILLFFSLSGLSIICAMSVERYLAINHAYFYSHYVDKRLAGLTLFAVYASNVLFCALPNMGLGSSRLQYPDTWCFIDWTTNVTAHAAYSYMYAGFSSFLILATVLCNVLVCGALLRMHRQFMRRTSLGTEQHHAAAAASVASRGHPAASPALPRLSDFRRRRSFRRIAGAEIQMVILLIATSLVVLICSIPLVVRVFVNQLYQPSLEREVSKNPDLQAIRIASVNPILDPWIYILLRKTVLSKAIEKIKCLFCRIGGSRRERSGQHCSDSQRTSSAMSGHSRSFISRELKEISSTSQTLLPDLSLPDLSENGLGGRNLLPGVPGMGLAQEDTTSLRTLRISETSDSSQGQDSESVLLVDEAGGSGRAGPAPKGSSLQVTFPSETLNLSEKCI
In short: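 PathHunter HEK 293 cells expressing ProLink-tagged human EP4 and EA-β-arrestin 2, seeded 24 h before. Compounds (10 μM–2 nM or 1 μM–0.2 nM) preincubated 15 min at 37 °C, then 20 nM PGE2 (EC80) for 120 min at 37 °C. β-gal complementation luminescence read; IC50 from duplicate dose-response curves versus DMSO control.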

EP2 receptor = target: T3, EP2 receptor (Homo sapiens, UniProt P43116); assay: hEP2 cAMP assay (SF295 glioblastoma cells, HTRF cAMP, PGE2 stimulation); details: antagonistic activity
T3 construct: SF295 glioblastoma cells express high endogenous EP2 and no EP4; host or cells: SF295 glioblastoma cells
T3 sequence (P43116 whole entry): as the sequence (P43116 whole entry) above
In short: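 SF295 glioblastoma cells with endogenous EP2 and no EP4, in HBSS/HEPES/BSA with 2 mM IBMX, pre-incubated 45 min at room temperature with compound, then stimulated 30 min with 75 nM PGE2 (EC80). cAMP measured by HTRF; IC50 fitted from duplicate % cAMP versus DMSO control.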

Compound | IC50 (PTGER2 (EP2)) [nM] | IC50 (PTGER4 (EP4)) [nM] | IC50 (EP2 receptor) [nM]
CCc1nc(-c2cc(NCCc3c(C)sc4c(C)cc(F)cc34)ncn2)sc1-c1noc(=O)[nH]1 [Example 163, 3-(4-Ethyl-2-{6-[2-(5-fluoro-2,7-dimethyl-benzo[b]thiophen-3-yl)-ethylamino]-pyrimidin-4-yl}-thiazol-5-yl)-[1,2,4]oxadiazol-5(4H)-one [tautomeric form: 3-(4-ethyl-2-(6-((2-(5-fluoro-2,7-dimethylbenzo[b]thiophen-3-yl)ethyl)amino)pyrimidin-4-yl)thiazol-5-yl)-[1,2,4]oxadiazol-5-ol]] | 26 | 17 | 20
CCOc1cc(-c2cc(NCCc3c(C#N)sc4c(C)cc(F)cc34)ncn2)cc(F)c1CC(=O)O [Example 165, (4-{6-[2-(2-Cyano-5-fluoro-7-methyl-benzo[b]thiophen-3-yl)-ethylamino]-pyrimidin-4-yl}-2-ethoxy-6-fluoro-phenyl)-acetic acid] | 28 | 54 | 129
Cc1sc2c(C)cccc2c1CCNc1cc(-c2ccc(C(=O)O)c(SCC(C)C)c2)ncn1 [Example 166, 4-{6-[2-(2,7-Dimethyl-benzo[b]thiophen-3-yl)-ethylamino]-pyrimidin-4-yl}-2-isobutylsulfanyl-benzoic acid] | 31 | 254 | 183
COc1cc(-c2cc(NCCc3c(C#N)sc4c(C)cc(F)cc34)ncn2)ccc1CC(=O)O [Example 168, (4-{6-[2-(2-Cyano-5-fluoro-7-methyl-benzo[b]thiophen-3-yl)-ethylamino]-pyrimidin-4-yl}-2-methoxy-phenyl)-acetic acid] | 65 | 66 | 3030
Cc1cc(F)cc2c(CCNc3cc(-c4ccc(C(=O)O)c(OC(C)C)c4)ncn3)c(C#N)sc12 [Example 172, 4-{6-[2-(2-Cyano-5-fluoro-7-methyl-benzo[b]thiophen-3-yl)-ethylamino]-pyrimidin-4-yl}-2-isopropoxy-benzoic acid] | 40 | 166 | 50
CCOc1cc(-c2cc(NCCc3c(C#N)sc4c(C)cc(F)cc34)ncn2)ccc1OCCC(=O)O [Example 176, 3-(4-{6-[2-(2-Cyano-5-fluoro-7-methyl-benzo[b]thiophen-3-yl)-ethylamino]-pyrimidin-4-yl}-2-ethoxy-phenoxy)-propionic acid] | 9 | 19 | 37
Cc1sc2c(C)cc(F)cc2c1CCNc1cc(-c2ccc(CC(=O)O)c(CC(C)C)c2)ncn1 [Example 182, (4-{6-[2-(5-Fluoro-2,7-dimethyl-benzo[b]thiophen-3-yl)-ethylamino]-pyrimidin-4-yl}-2-isobutyl-phenyl)-acetic acid] | 41 | 164 | 617
Cc1sc2c(C)cc(F)cc2c1CCNc1cc(-c2ccc(C(=O)O)c(OCC(C)C)c2)ncn1 [Example 184, 4-{6-[2-(5-Fluoro-2,7-dimethyl-benzo[b]thiophen-3-yl)-ethylamino]-pyrimidin-4-yl}-2-isobutoxy-benzoic acid] | 7 | 311 | 39

Other lines, results leading:

IC50 (PTGER2 (EP2)) [nM] | IC50 (PTGER4 (EP4)) [nM] | IC50 (EP2 receptor) [nM] | Compound
504 | 50 | 348 | CCOc1cc(-c2cc(NCCc3c(C#N)sc4c(OC)cccc34)ncn2)ccc1CC(=O)O [Example 164, (4-{6-[2-(2-Cyano-7-methoxy-benzo[b]thiophen-3-yl)-ethylamino]-pyrimidin-4-yl}-2-ethoxy-phenyl)-acetic acid]
5 | 34 | 11 | CCCc1cc(-c2cc(NCCc3c(C#N)sc4c(C)cc(F)cc34)ncn2)ccc1C(=O)O [Example 167, 4-{6-[2-(2-Cyano-5-fluoro-7-methyl-benzo[b]thiophen-3-yl)-ethylamino]-pyrimidin-4-yl}-2-propyl-benzoic acid]
30 | 100 | 142 | CCCOc1cc(-c2cc(NCCc3c(C#N)sc4c(C)cc(F)cc34)ncn2)ccc1CC(=O)O [Example 169, (4-{6-[2-(2-Cyano-5-fluoro-7-methyl-benzo[b]thiophen-3-yl)-ethylamino]-pyrimidin-4-yl}-2-propoxy-phenyl)-acetic acid]
19 | 19 | 116 | CCCc1cc(-c2cc(NCCc3c(C#N)sc4c(C)cc(F)cc34)ncn2)ccc1CC(=O)O [Example 170, (4-{6-[2-(2-Cyano-5-fluoro-7-methyl-benzo[b]thiophen-3-yl)-ethylamino]-pyrimidin-4-yl}-2-propyl-phenyl)-acetic acid]
59 | 57 | 275 | Cc1cc(F)cc2c(CCNc3cc(-c4ccc(CC(=O)O)c(OC(C)C)c4)ncn3)c(C#N)sc12 [Example 171, (4-{6-[2-(2-Cyano-5-fluoro-7-methyl-benzo[b]thiophen-3-yl)-ethylamino]-pyrimidin-4-yl}-2-isopropoxy-phenyl)-acetic acid]
22 | 242 | 309 | CCCc1cc(-c2cc(NCCc3c(C)sc4c(C)cc(F)cc34)ncn2)ccc1CC(=O)O [Example 186, (4-{6-[2-(5-Fluoro-2,7-dimethyl-benzo[b]thiophen-3-yl)-ethylamino]-pyrimidin-4-yl}-2-propyl-phenyl)-acetic acid]
20 | 92 | 27 | CCOc1cc(-c2cc(NCCc3c(C)sc4c(C)cc(F)cc34)ncn2)ccc1C(=O)C(=O)O [Example 189, (2-Ethoxy-4-{6-[2-(5-fluoro-2,7-dimethyl-benzo[b]thiophen-3-yl)-ethylamino]-pyrimidin-4-yl}-phenyl)-oxo-acetic acid]
28 | 200 | 274 | CCCOc1cc(-c2cc(NCCc3c(C)sc4c(C)cc(F)cc34)ncn2)ccc1CC(=O)O [Example 190, (4-{6-[2-(5-Fluoro-2,7-dimethyl-benzo[b]thiophen-3-yl)-ethylamino]-pyrimidin-4-yl}-2-propoxy-phenyl)-acetic acid]
